Results published in patent US8846665B2, “6,7-dihydro-[1,3,4]thiadiazolo-[3,2-a][1,3]diazepin derivative and pharmaceutical composition containing the same as neuromuscular blocker or skeletal muscle relaxant, and method for the preparation” (King Saud University, priority 2011, dated 2014).
“And” between values parts separate entries of the source, which are not always exact repeats. Identical values can stand only once. Like-named read-outs stand apart in the source and are kept apart here.

Columns and labels:
[1] = tested on: rat tibialis electrically-induced twitches; assay: Neuromuscular blocking activity in rats (sciatic nerve-tibialis twitch); type: in vivo; details: for Time for 100% Reversal / Time of onset of Reversal: after physostigmine; for ED50 (mmole/kg i.p.): dose producing 50% reduction of the rat tibialis twitch; for Duration of the Block / Time of 50% Block / Time of 90% Block / Time of onset of Block: rat tibialis twitches; for Effect of Physostigmine: reversal of block by physostigmine, single bolus
[2] = tested on: 4-day old chicks; assay: Neuromuscular blocking activity in chicks (head drop, type of paralysis); type: in vivo, chick
Method: Adult male Wistar rats (250 g) and 4-day old chicks (50 g) were used to conduct the neuromuscular blocking activity evaluation. They were housed in cages and kept at a temperature of 20±2° C. and a relative humidity of 55±5% with a light-dark cycle of 12 h. The animals were provided with Purina rodent's chow pellets supplied by Grain silos and Flour Mills Organization, Riyadh, Saudi Arabia and had both food and water ad libitum. The chicks were bought from the local market in Riyadh. Male Wistar rats (250 g) were randomly divided into various groups (N=4-8 animals). The animals were prepared following modifications of the reported method (Henning, R. Br. J. Pharmacol. 1993, 108, 717-720; Thesleff, S. et al, J. Pharmacol. Expt. Ther. 1954, 111, 99-118). Test drugs, standards or vehicles were administered intraperitoneal dissolved in dimethyl sulfoxide, or water as appropriate in various doses 1-100 mg/kg. In all experiments a control group was included and received intraperitoneal injections of the test compounds' vehicle. […] Also the dose that produced 90% of twitches depression was calculated. The response of the muscle to titanic stimulation was tested before administration of any drug and following 90% inhibition of the twitches.
Intraperitoneal administration of compounds of the formula 1 in single doses ranged from of 0.15-0.3 mmoles/kg, induced flaccid paralysis of the chicks within 1-15 minutes. The paralysis started with head movement and drop; then complete flaccid paralysis occurred. The onset of head drops were ranged from 15 sec-11 minutes whereas the flaccid paralysis ranged from 1-15 minutes following administration. Atracurium and Succinylcholine were used as positive controls. The mechanism of action of compounds of the formula 1 was similar but with more rapid onset of action than that of Atracurium; and almost similar to that of Succinylcholine. Representative example is shown in Example 4.
The effects of GS-53 and the standard drugs Succinylcholine and Atracurium were administered to 4-day old chicks to confirm the mode of the neuromuscular blockade (Buttle, G. et al, J. Pharm. Pharmacol. 1949, 1, 991-992; Thesleff, S. et al, J. Pharmacol. Expt. Ther. 1954, 111, 99-118; ELTahir, K. Guide to Drug Discovery, 2008, Riyadh, KSA). […] Intraperitoneal administration of GS-53 in single dose of 0.15 mmoles/kg, induced flaccid paralysis of the chicks within one minute. The paralysis started with head movement and drop; then complete flaccid paralysis occurred. The onset of head drop was 15 sec whereas the flaccid paralysis was one minute following administration. Atracurium and Succinylcholine were used as positive controls. The mechanism of action GS-53 seemed to be similar but with more rapid onset of action than that of Atracurium; and almost similar to that of Succinylcholine (Table 2).

[3] = Determination of the lethal dose (LD50); details: male, mouse, in vivo, ip, male mice, intraperitoneal
Method: The LD50 values of compounds of formula 1 were performed. Compounds were given intraperitoneally in doses ranging from 0.1-5 mmole/kg. […] All behavioral changes and death during the observation periods were recorded. The percentage of death at each dose level was then calculated, and the LD50 values were obtained (Ghosh, M., Fundamentals of Experimental Pharmacology, Scientific Book Agency, Calcutta. 1984, pp 153-158, 187-189). The Therapeutic Index of each compound was calculated following the determination of the effective neuromuscular blocking dose. Representative example is shown in Example 5.
Male mice were divided into various groups and GS-53 was administered in various doses ranging from 0.1-5 mmole/kg, intraperitoneal. […] All behavioral changes and death during the observation periods were recorded.

[4] = literature classification, cited from earlier work; for Onset of action: following bolus i.v. administration
[5] = single dose of 0.15 mmoles/kg i.p.

COc1ccc(CC2c3cc(OC)c(OC)cc3CC[N+]2(C)CCC(=O)OCCCCCOC(=O)CC[N+]2(C)CCc3cc(OC)c(OC)cc3C2Cc2ccc(OC)c(OC)c2)cc1OC (centres unmarked) [Atracurium]
Time for 100% Reversal [1]: 3 ± 0.4 min
Time of onset of Reversal [1]: 2.0 min
ED50 (mmole/kg i.p.) ([1]; i.p.): 0.016 mmol/kg
Duration of the Block ([1]; i.p.): 30 ± 6 min
Time of 50% Block ([1]; i.p.): 8 ± 0.2 min
Time of 90% Block ([1]; i.p.): 12 ± 1.3 min
Time of onset of Block ([1]; i.p.): 5 ± 0.8 min
Effect of Physostigmine [1]: 100% Reversal
ED50 (mmole/kg i.p.) ([2]; i.p.): 0.016 mmol/kg
Mechanism of action ([2]; i.p.): Competitive
Onset of head drop ([2]; i.p.): 5 ± 0.8 min
Onset of muscle relaxation ([2]; i.p.): 10 ± 0.8 min
Type of neuromuscular paralysis ([2]; i.p.): Flaccid

O=C1CCCN2N=C(c3ccc(Br)cc3)SC2=N1 [GS-53, (E)-2-(4-bromophenyl)-6,7-dihydro-[1,3,4]thiadiazolo[3,2-a][1,3]diazepin-8(5H)-one]
Time for 100% Reversal [1]: 6 ± 1.2 min
Time of onset of Reversal [1]: 1.0 min
ED50 (mmole/kg i.p.) ([1]; i.p.): 0.15 mmol/kg
ED50 (mmole/kg i.p.), value in brackets in mg ([1]; i.p., rat tibialis twitch): 48.6 mg
Duration of the Block ([1]; i.p.): 70 ± 12 min
Time of 50% Block ([1]; i.p.): 7 ± 0.6 min
Time of 90% Block ([1]; i.p.): 10 ± 3 min
Time of onset of Block ([1]; i.p.): 3 ± 0.9 min
Duration of action relative to Atracurium ([1]; rat, ratio of durations of block): 2.3 times
Effect of Physostigmine [1]: completely reversed and 100% Reversal
LD50 at 72 h ([3]; observation 72 hours, read-out: LD50): 195 mg/kg
LD50 at 72 h ([3]; read-out: LD50 95% confidence limits): 185 to 205 mg/kg
ED50 (mmole/kg i.p.) ([2]; i.p.): 0.15 mmol/kg
ED50 (mmole/kg i.p.), value in brackets in mg ([2]; i.p.): 48.6 mg/kg
Mechanism of action ([2]; i.p.): Competitive
Onset of head drop ([2]; i.p.): 0.25 ± 0.1 min
Onset of muscle relaxation ([2]; i.p.): 1 ± 0.08 min
Type of neuromuscular paralysis ([2]; i.p.): Flaccid
Onset of flaccid paralysis [2, 5]: one
Onset of head drop [2, 5]: 0.25 min

COc1cc2c(cc1OC)[C@H](c1cc(OC)c(OC)c(OC)c1)[N@@+](C)(CCCOC(=O)/C=C(\Cl)C(=O)OCCC[N@+]1(C)CCc3cc(OC)c(OC)cc3[C@H]1Cc1cc(OC)c(OC)c(OC)c1)CC2 [Gantacurium]
Onset of action [4]: within a minute
Duration [4]: 5 min

C[N+](C)(C)CCOC(=O)CCC(=O)OCC[N+](C)(C)C [Succinylcholine]
Onset of action [4]: within a minute
Duration [4]: 5 min
ED50 (mmole/kg i.p.) ([1]; i.p.): 0.03 mmol/kg
Duration of the Block ([1]; i.p.): 20 ± 1.8 min
Time of 50% Block ([1]; i.p.): 3 ± 0.1 min
Time of 90% Block ([1]; i.p.): 5 ± 0.2 min
Time of onset of Block ([1]; i.p.): 2 ± 0.1 min
Effect of Physostigmine [1]: No Reversal
ED50 (mmole/kg i.p.) ([2]; i.p.): 0.03 mmol/kg
Mechanism of action ([2]; i.p.): Depolarizing
Onset of muscle relaxation ([2]; i.p.): 0.5 ± 0.02 min
Type of neuromuscular paralysis ([2]; i.p.): Spastic
